Measured values as given in patent US7524679B2, “Methods for culturing human lung mast cells and uses thereof” (Philadelphia, Health and Education Corporation, priority 2001, dated 2009).
One block for each molecule: values may come before it. Ends that are not written are not given here.

Tests used:
human lung mast cells [1] = assay: Histamine release assay in cultured human lung mast cells; assay type: cell-based; conditions: agent alone on cultured human lung mast cells
Description: Release of histamine in response to various stimuli was also examined.
Mast cells (10-50×10^3/tube) in PAGCM were preincubated at 37° C. then challenged with buffer or anti-FcεRI in doubling dilutions. In experiments examining the effects of beta-agonist and purinergic agonists, agents were added to cells at 37° C. for 15 minutes prior to FcεRI-mediated challenge. Twenty minutes following challenge, cells were rapidly pelleted and supernatants removed for histamine analysis. Histamine release was expressed as the net histamine released divided by the total histamine content ×100%. The total cellular histamine content was determined following cell lysis with 2% perchloric acid. […] Histamine measurements were performed using the automated spectrofluorometric method of Technicon (Tarrytown, N.Y.). […] All assays were run in duplicates.

[2] = tested on: cord-blood precursor-derived mast cells; conditions: cited from earlier work
[3] = tested on: freshly isolated human lung mast cells; conditions: cited from earlier work
[4] = tested on: human lung mast cell cultures; assay: Beta-receptor responsiveness: inhibition of histamine release; assay type: cell-based; conditions: cultured human lung mast cells, agents added 15 minutes prior to FcεRI-mediated challenge
Description: Beta-receptor responsiveness of human lung mast cell cultures of the present invention were also examined using the prototype agonist, isoproterenol, as well as with the long-acting beta agonist, salmeterol.
Mast cells (10-50×10^3/tube) in PAGCM were preincubated at 37° C. then challenged with buffer or anti-FcεRI in doubling dilutions. In experiments examining the effects of beta-agonist and purinergic agonists, agents were added to cells at 37° C. for 15 minutes prior to FcεRI-mediated challenge. Twenty minutes following challenge, cells were rapidly pelleted and supernatants removed for histamine analysis. Histamine release was expressed as the net histamine released divided by the total histamine content ×100%. The total cellular histamine content was determined following cell lysis with 2% perchloric acid. Spontaneous histamine release was always <2% of cellular histamine and generally <1%. Histamine measurements were performed using the automated spectrofluorometric method of Technicon (Tarrytown, N.Y.). Variations between replicates were consistently <5%. All assays were run in duplicates.

human lung mast cells [5] = assay: Proliferation assay using 3H-thymidine uptake; assay type: cell-based; conditions: for effect on proliferation when added to medium containing stem cell factor and interleukin-4: added on top of stem cell factor and interleukin-4
Description: Uptake of ^3H-thymidine was also monitored as a measure of survival and proliferation of human lung mast cell cultures of the present invention in the presence of different cytokine growth factors. In these experiments, ^3H-thymidine was added to human lung mast cell aliquots from three individuals at 5 through 7 weeks of culture. […] In the absence of stem cell factor, cells died within 3-5 days. Medium with stem cell factor alone produced a 60% increase in uptake. Medium to which stem cell factor and interleukin-4 were added produced a greater than 4-fold increase in proliferation versus stem cell factor alone.
At days 35-49, when cultures contained >95-99% mast cells, 2×10^4 mast cells in 50 μl culture medium were placed in triplicate in 96 well flat-bottomed plates and ^3H-thymidine (0.5 μCi/50 μl/well) added. After four days, cells were harvested on a glass fiber filter, washed ×3, and radioactive uptake was evaluated by a beta counter. Since the cultures contained virtually homogeneous populations, the counts reflected mast cell proliferation and not that of cellular contaminants. The results were expressed as the percent increase in radioactivity over mast cell cultured in medium alone.

[6] = tested on: mast cells from CD34 positive precursor stem cells; conditions: added to precursor-derived mast cell culture system; cited from earlier work

Molecule: CNc1ccc2oc(C[C@H]3O[C@@]4(CC[C@H]3C)O[C@H]([C@H](C)C(=O)c3ccc[nH]3)[C@H](C)C[C@H]4C)nc2c1C(=O)O [A23187]
- histamine release, in words (human lung mast cells [1]): in similar fashion to freshly isolated human lung mast cells

Molecule: Nc1ncnc2c1ncn2[C@@H]1O[C@H](COP(=O)(O)OP(=O)(O)OP(=O)(O)O)[C@@H](O)[C@H]1O [ATP]
- histamine release, in words (human lung mast cells [1]): neither ATP nor UTP alone triggered appreciable histamine release

Molecule: Nc1ncnc2c1ncn2[C@@H]1O[C@H](CO)[C@@H](O)[C@H]1O [Adenosine, adenosine]
- effect on IgE-mediated histamine release [2]: inhibits IgE-mediated histamine release
- effect on anti-IgE-induced histamine release [3]: enhancement of anti-IgE-induced release

Molecule: O=c1ccn([C@@H]2O[C@H](COP(=O)(O)OP(=O)(O)OP(=O)(O)O)[C@@H](O)[C@H]2O)c(=O)[nH]1 [UTP, uridine 5′ triphosphate]
- histamine release, in words (human lung mast cells [1]): neither ATP nor UTP alone triggered appreciable histamine release

- IC50 [4]: 0.09 nM
Molecule: CC(C)NCC(O)c1ccc(O)c(O)c1 (stereo not shown) [isoproterenol]

- IC50 [4]: 0.1 nM
Molecule: OCc1cc(C(O)CNCCCCCCOCCCCc2ccccc2)ccc1O (stereo not shown) [salmeterol]

Molecule: interferon-y: cytokine added to culture medium containing stem cell factor and interleukin-4
- effect on proliferation when added to medium containing stem cell factor and interleukin-4 (human lung mast cells [5]): marked reduction in proliferation

Molecule: interleukin-9: cytokine growth factor
- effect on proliferation when added to medium containing stem cell factor and interleukin-4 (human lung mast cells [5]): even greater enhancement in proliferation

Molecule: stem cell factor: cytokine growth factor added to the culture medium
- increase in 3H-thymidine uptake (human lung mast cells [5]; medium with stem cell factor alone, over medium alone): 60%

Molecule: substance P (RPKPQQFFGLM; ends and bridges not checked; UniProt P20366 58-68, looked up)
- histamine release, in words (human lung mast cells [1]): failed to provoke histamine release

B1: interleukin-4: cytokine growth factor; the cytokine that most defines allergic immunity (protein, UniProt P05112 25-153, looked up)
Interleukin-4: HKCDITLQEIIKTLNSLTEQKTLCTELTVTDIFAASKNTTEKETFCRAATVLRQFYSHHEKDTRCLGATAQQFHRHKQLIRFLKRLDRNLWGLAGLNSCPVKEANQSTLENFLERLKTIMREKYSKCSS
- programmed cell death (apoptosis) [6]: induces programmed cell death (apoptosis)
- proliferation (3H-thymidine uptake) (human lung mast cells [5]; interleukin-4 added in the absence of stem cell factor, 5 through 7 weeks of culture): no proliferation in excess of that seen in culture medium alone
